Legend:
[1] = system: IL-6-dependent MM cell lines; conditions: cited from earlier work
[2] = system: STAT3; assay: Immunohistochemistry of ear sections in murine DTH model; type: in vivo, mice; conditions: after the sensitization phase
Method: To determine if topical administration of the test compound was sufficient to inhibit activation of the Jak-STAT pathway, immunohistochemistry was carried out on fixed tissues.

[3] = system: murine skin contact delayed-type hypersensitivity (DTH) response; assay: Murine DTH model for dermatitis, ear swelling; type: in vivo, mice
Method: Certain compounds herein were also tested for their efficacies (of inhibiting Jak targets) in the T-cell driven murine delayed hypersensitivity test model. The murine skin contact delayed-type hypersensitivity (DTH) response is considered to be a valid model of clinical contact dermatitis, and other T-lymphocyte mediated immune disorders of the skin, such as psoriasis (Immunol Today. 1998 January; 19(1):37-44). Murine DTH shares multiple characteristics with psoriasis, including the immune infiltrate, the accompanying increase in inflammatory cytokines, and keratinocyte hyperproliferation. Furthermore, many classes of agents that are efficacious in treating psoriasis in the clinic are also effective inhibitors of the DTH response in mice (Agents Actions. 1993 January; 38(1-2):116-21).
Test compound 3-{(3R,4R)-4-methyl-3-[methyl-(7H-pyrrolo[2,3-d]pyrimidin-4-yl)amino]-piperidin-1-yl}-3-oxo-propionitrile (see, e.g., WO 01/42246, WO 02/00661, or WO 03/48162) was administered continuously using mini-osmotic pumps to deliver the compound at 150 mg/kg/d. The inflammatory response was monitored by measuring the ear thickness prior to and after immune challenge. Differences in ear thickness were calculated for each mouse and then averaged for the group. Comparisons were made between vehicle and the treated groups in the context of the negative controls (challenged without sensitization) and therapeutic positive control mice (treated with dexamethasone or other efficacious agent).
A further murine DTH experiment was conducted by treating mice with 3-{(3R,4R)-4-methyl-3-[methyl-(7H-pyrrolo[2,3-d]pyrimidin-4-yl)amino]-piperidin-1-yl}-3-oxo-propionitrile either systemically or topically (3%, BID) after the sensitization phase was complete.

[4] = system: myeloid dendritic cells (DCs); conditions: CD40-induced maturation of myeloid DCs; cited from earlier work
[5] = system: NOD mouse model of autoimmune type 1 diabetes; conditions: cited from earlier work
[6] = systemic, continuous by mini-osmotic pumps, 150 mg/kg/d

N#C/C(=C\c1ccc(O)c(O)c1)C(=O)NCc1ccccc1 [tyrphostin AG490]
JAK2 kinase activity and ERK2 and STAT3 phosphorylation [1]: inhibited | apoptosis [1]: induced | cell proliferation [1]: suppressed

C[C@@H]1CCN(C(=O)CC#N)C[C@@H]1N(C)c1ncnc2[nH]ccc12 [3-{(3R,4R)-4-methyl-3-[methyl-(7H-pyrrolo[2,3-d]pyrimidin-4-yl)amino]-piperidin-1-yl}-3-oxo-propionitrile]
number of infiltrating cells ([2]; systemic administration): visibly reduced | phosphorylation of STAT3 in all cell types ([2]; systemic administration): inhibited | number of infiltrating cells ([2]; topical administration): visibly reduced | phosphorylation of STAT3 in all cell types ([2]; topical administration): inhibited | inhibition of ear swelling ([3]; systemic administration during the challenge phase, after sensitization phase complete (FIG. 1)): > 50% | histological analysis of hematoxolyin and eosin stained tissue sections [3, 6]: near complete inhibition of ear swelling | inhibition of ear swelling [3, 6]: 95% | inhibition of ear swelling ([3]; topical administration (3%, BID) during the challenge phase, after sensitization phase complete (FIG. 1)): > 50%

COc1cc2ncnc(Nc3ccc(O)c(Br)c3)c2cc1OC [WHI-P-154]
CD40-induced JAK3 activity, costimulatory molecule expression, IL-12 production, allogeneic stimulatory capacity [4]: prevented these effects

COc1cc2ncnc(Nc3ccc(O)cc3)c2cc1OC [JANEX-1]
onset of diabetes [5]: delayed the onset of diabetes
